One experiment deals with E. coli 14. The experiment can be described thus: MIC, liquid medium test tube series dilution test. Type of experiment: cell-based. The conditions noted are these: E. coli 14, 24 hours, 37°C. Summed up:
(§1)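 In this in vitro test, growth inhibition is judged by absence of turbidity across a dilution series in complete nutrient broth. Readings are made after 24 hours at 37°C, with values given in units/ml.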

The test system of a further experiment is E. coli 183/58. Briefly: MIC, liquid medium test tube series dilution test. The conditions noted are these: E. coli 183/58, 24 hours, 37°C. It is filed as cell-based. In a few lines:
as §1

In a further experiment the test system is E. coli A 261. The experiment can be described thus: MIC, liquid medium test tube series dilution test. Type of experiment: cell-based. The conditions noted are these: E. coli A 261, 24 hours, 37°C. Summed up: as §1
The subject of another experiment is E. coli C 165. Briefly: MIC, liquid medium test tube series dilution test. Type of experiment: cell-based. Particulars: E. coli C 165, 24 hours, 37°C. In a few lines: as §1
A further experiment deals with E. coli. The experiment can be described thus: MIC, liquid medium test tube series dilution test. It is filed as cell-based. The conditions noted are these: strain not given, 24 hours. In a few lines: as §1
For the next experiment, the system named is Klebsiella 63. The experiment can be described thus: MIC, liquid medium test tube series dilution test. It is filed as cell-based. Particulars: Klebsiella 63, 24 hours, 37°C. Summed up: as §1
A further experiment deals with Klebsiella K 10. Briefly: MIC, liquid medium test tube series dilution test. Type of experiment: cell-based. The conditions noted are these: Klebsiella K 10, 24 hours, 37°C. Summed up:
as §1

The subject of experiment [1] is Streptoc. faec. ATCC 9790. Briefly: MIC, liquid medium test tube series dilution test. Type of experiment: cell-based. The conditions noted are these: Strep. faec. (Enterococcus) ATCC 9790, 24 hours, 37°C. Summed up: as §1
The test system of a further experiment is Proteus vulg. 1017. Briefly: MIC, liquid medium test tube series dilution test. Particulars: Proteus vulg. 1017, 24 hours, 37°C. It is filed as cell-based, Proteus vulgaris. Summed up: as §1
The test system of the next experiment is Proteus vulg. 3400. Briefly: MIC, liquid medium test tube series dilution test. It is filed as cell-based, Proteus vulgaris. The conditions noted are these: Proteus vulg. 3400, 24 hours, 37°C. Summed up:
as §1

A further experiment deals with Psdm. aerug. Bonn. The experiment can be described thus: MIC, liquid medium test tube series dilution test. It is filed as cell-based, Pseudomonas aerug. Particulars: 24 hours, 37°C. In a few lines:
as §1

Experiment [2] relates to Psdm. aerug. Walter. The experiment can be described thus: MIC, liquid medium test tube series dilution test. Type of experiment: cell-based, Pseudomonas aerug. Particulars: 24 hours, 37°C. Summed up: as §1
For experiment [3], the system named is Staph. aureus 133. Briefly: MIC, liquid medium test tube series dilution test. It is filed as cell-based, Staphylococcus aureus. Particulars: Staph. aureus 133, 24 hours, 37°C. Summed up:
as §1

Experiment [4] concerns Staph. aureus 133. Briefly: Surviving mice after intraperitoneal infection and subcutaneous therapy. It is filed as in vivo, white mice, CF1 strain. The conditions noted are these: 2 × 200 units/mouse s.c. How it is done: (§2) The experiments on animals (see Table 3) were carried out with white mice of the CF1 strain. The infection took place intraperitoneally with the particular bacterium indicated.

In a further experiment the test system is Staph. aureus 1777 E. The experiment can be described thus: MIC, liquid medium test tube series dilution test. The conditions noted are these: 24 hours, 37°C. Type of experiment: cell-based, Staphylococcus aureus. In a few lines: as §1
The test system of experiment [5] is Psdm. aerug. Walter. The experiment can be described thus: Surviving mice after intraperitoneal infection and subcutaneous therapy. Type of experiment: in vivo, white mice, CF1 strain. The conditions noted are these: compared with carbenicillin. The method, then:
as §2

With `Cc1ccc(C(=O)N(C)C(=O)N[C@@H](C(=O)N[C@@H]2C(=O)N3[C@@H]2SC(C)(C)[C@@H]3C(=O)O)c2ccccc2)cc1` [Example 73, Sodium D(-)-α-(3-p-methylbenzoyl-3-methyl-ureido)-benzylpenicillin], the MIC against E. coli 14 is reported as 3.12 units/ml; with E. coli 183/58 it was 1.56 units/ml; in the experiment on E. coli A 261 it was 200-400 units/ml; in the experiment with E. coli C 165, 6.25 units/ml; in the experiment with Klebsiella 63, 12.5-25 units/ml; against Klebsiella K 10 it was 25-50 units/ml. Moreover, the MIC in experiment [1] is 50-100 units/ml; against Proteus vulg. 1017, 6.25 units/ml; against Proteus vulg. 3400 it was 12.5 units/ml; against Psdm. aerug. Bonn, 12.5 units/ml; with Psdm. aerug. Walter [2], ~ 50 units/ml; in the experiment with Staph. aureus 133 [3] it was 0.78 units/ml. Further, in the experiment on E. coli, the “Effectiveness (MIC)” value amounted to 312 units/ml. Also, the “Number of surviving mice” value with Staph. aureus 133 [4] (1 day) is 80%; in the experiment on Staph. aureus 133 [4] (2 days), 70%; with Staph. aureus 133 [4] (3 days), 50%; in the experiment with Staph. aureus 133 [4] (5 days) it was 40%.

As for `CN(C(=O)N[C@@H](C(=O)N[C@@H]1C(=O)N2[C@@H]1SC(C)(C)[C@@H]2C(=O)O)c1ccccc1)C(=O)c1ccccc1Cl` [Example 107], the MIC with E. coli 14 is on record as below 0.8 units/ml; in the experiment with E. coli 183/58, below 0.8 units/ml; in the experiment with E. coli C 165, below 0.8 units/ml; against Klebsiella 63, 4-20 units/ml; in the experiment on Klebsiella K 10, ~ 4 units/ml; in [1], 4-20 units/ml. The MIC in the experiment with Proteus vulg. 1017 is reported as 0.8-4 units/ml; against Proteus vulg. 3400, 0.8-4 units/ml; against Psdm. aerug. Bonn, 0.8-4 units/ml; in the experiment on Psdm. aerug. Walter [2] it was 0.8-4 units/ml; against Staph. aureus 133 [3] it was below 0.8 units/ml; in the experiment on Staph. aureus 1777 E it was 20-100 units/ml. Besides, the “Effectiveness in animal experiments against Pseudomonas aerug. Walter” value in the experiment with Psdm. aerug. Walter [5] is given as “better than carbenicillin”.

The values are drawn from patent US3974140A, “Ureidoacetamido-penicillins” (Bayer Aktiengesellschaft, priority 1970, dated 1976).
